Data: ChEMBL document CHEMBL1138055, “Tetraoxane antimalarials and their reaction with Fe(II)” (J Med Chem, 2006)
Values joined by “and” are separate entries in the source; they are usually repeats but may differ in a detail not shown here. Equal entries are not always repeated.

Key:
Plasmodium falciparum [1] = test system: Plasmodium falciparum
Description: (§1) Antimalarial activity against Plasmodium falciparum TM91C235

UO-31 = test: Antiproliferative activity against human UO31 cell line after 48 hrs; format: functional; settings: for CC50: read-out: LC50 (the source's name)
Plasmodium falciparum [2] = test system: Plasmodium falciparum; remark: listed apart in the source
Description: (§2) Antimalarial activity against Plasmodium falciparum D6

Plasmodium falciparum [3] = test system: Plasmodium falciparum; remark: listed apart in the source
Description: (§3) Antimalarial activity against Plasmodium falciparum W2

DU-145 = test: Antiproliferative activity against human DU145 cell line after 48 hrs; format: functional; settings: DU-145, 48 h
COLO 205 = test: Antiproliferative activity against human COLO 205 cell line after 48 hrs; format: functional; settings: for CC50: read-out: LC50 (the source's name)
HOP-62 = test: Antiproliferative activity against human HOP62 cell line after 48 hrs; format: functional; settings: for CC50: read-out: LC50 (the source's name)
PC-3 = test: Antiproliferative activity against human PC3 cell line after 48 hrs; format: functional; settings: PC-3, 48 h
EKVX = test: Antiproliferative activity against human EKVX cell line after 48 hrs; format: functional
ACHN = test: Antiproliferative activity against human ACHN cell line after 48 hrs; format: functional
HCT-15 = test: Antiproliferative activity against human HCT15 cell line after 48 hrs; format: functional; settings: HCT-15, 48 h
IGROV-1 = test: Antiproliferative activity against human IGROV1 cell line after 48 hrs; format: functional; settings: for CC50: read-out: LC50 (the source's name)
Mus musculus [4] = test: Effect on survival of CD1 mice (Mus musculus) infected with Plasmodium berghei KBG173 at 600 mg/kg/day, perorally; format: functional, organism-based; design: route oral; settings: route oral
SK-MEL-2 = test: Antiproliferative activity against human SK-MEL2 cell line after 48 hrs; format: functional; settings: SK-MEL-2, 48 h
UACC-62 = test: Antiproliferative activity against human UACC62 cell line after 48 hrs; format: functional; settings: UACC-62, 48 h
SNB-75 = test: Antiproliferative activity against human SNB75 cell line after 48 hrs; format: functional; settings: SNB-75, 48 h
Mus musculus [5] = test: Effect on survival of CD1 mice (Mus musculus) infected with Plasmodium berghei KBG173 at 50 mg/kg/day, perorally; format: functional; settings: route oral
Mus musculus [6] = test: Effect on survival of CD1 mice (Mus musculus) infected with Plasmodium berghei KBG173 at 200 mg/kg/day, perorally; format: functional; settings: route oral
Plasmodium falciparum [7] = test: microbe, parasite or virus in culture; settings: TM91C235
Description: as §1

Plasmodium falciparum [8] = test: microbe, parasite or virus in culture; settings: D6
Description: as §2

Plasmodium falciparum [9] = test: microbe, parasite or virus in culture; settings: W2
Description: as §3

U-251 = test: Antiproliferative activity against human U251 cell line after 48 hrs; format: functional; settings: U-251, 48 h
[10] = read-out: LC50 (the source's name)

Compound: CC(=O)O[C@H]1C[C@H]2[C@@H]([C@H](OC(C)=O)C[C@@H]3CC4(CC[C@@]32C)OOC2(CCC(C(=O)O)CC2)OO4)[C@@H]2CC[C@H]([C@H](C)CCC(=O)O)[C@@]12C (stereo in doubt; 6a)
- IC50 (Plasmodium falciparum [1]): 135 nM
- IC90 (Plasmodium falciparum [1]): 257 nM
- GI50 (UO-31; Homo sapiens, UO-31, 48 h): 1740 nM
- TGI (UO-31; Homo sapiens, UO-31, 48 h): 3.65 µM
- CC50 (UO-31; Homo sapiens, UO-31, 48 h): 7.66 µM
- IC50 (Plasmodium falciparum [2]): 98.3 nM
- IC90 (Plasmodium falciparum [2]): 147 nM
- IC50 (Plasmodium falciparum [3]): 135 nM
- IC90 (Plasmodium falciparum [3]): 156 nM

Compound: CCCNC(=O)CC[C@@H](C)[C@H]1CC[C@H]2[C@@H]3[C@H](OC(C)=O)C[C@@H]4CC5(CC[C@]4(C)[C@H]3C[C@H](OC(C)=O)[C@]12C)OOC1(CCC(C(=O)NCCC)CC1)OO5 (stereo in doubt; 9)
- IC50 (Plasmodium falciparum [1]): 14.9 nM
- IC90 (Plasmodium falciparum [1]): 63.2 nM
- IC50 (Plasmodium falciparum [2]): 10.5 nM
- IC90 (Plasmodium falciparum [2]): 17.8 nM
- IC50 (Plasmodium falciparum [3]): 18.1 nM
- IC90 (Plasmodium falciparum [3]): 39.6 nM

Compound: CCCOC(=O)CC[C@@H](C)[C@H]1CC[C@H]2[C@@H]3[C@H](OC(C)=O)C[C@@H]4CC5(CC[C@]4(C)[C@H]3C[C@H](OC(C)=O)[C@]12C)OOC1(CCC(C(=O)OCCC)CC1)OO5 (stereo in doubt; 5b)
- IC50 (Plasmodium falciparum [1]): 42.2 nM
- IC90 (Plasmodium falciparum [1]): 75.8 nM
- IC50 (Plasmodium falciparum [2]): 30.3 nM
- IC90 (Plasmodium falciparum [2]): 47.4 nM
- IC50 (Plasmodium falciparum [3]): 41.4 nM
- IC90 (Plasmodium falciparum [3]): 83.5 nM

Compound: CC(=O)O[C@H]1C[C@H]2[C@@H]([C@H](OC(C)=O)C[C@@H]3CC4(CC[C@@]32C)OOC2(CCC(C)CC2)OO4)[C@@H]2CC[C@H]([C@H](C)CCC(N)=O)[C@@]12C (stereo in doubt; 17)
- GI50 (DU-145): 1820 nM
- TGI (DU-145): 3.26 µM
- CC50 (DU-145; [10]): 5.85 µM
- GI50 (COLO 205; Homo sapiens, COLO 205, 48 h): 1690 nM
- TGI (COLO 205; Homo sapiens, COLO 205, 48 h): 3.12 µM
- CC50 (COLO 205; Homo sapiens, COLO 205, 48 h): 5.76 µM
- GI50 (HOP-62; Homo sapiens, HOP-62, 48 h): 1070 nM
- TGI (HOP-62; Homo sapiens, HOP-62, 48 h): 2310 nM
- CC50 (HOP-62; Homo sapiens, HOP-62, 48 h): 4.98 µM
- GI50 (PC-3): 1970 nM
- TGI (PC-3): 4.29 µM
- CC50 (PC-3; [10]): 9.31 µM
- GI50 (EKVX; Homo sapiens, EKVX, 48 h): 1430 nM
- LC50 (EKVX; Homo sapiens, EKVX, 48 h): 5.41 µM
- TGI (EKVX; Homo sapiens, EKVX, 48 h): 2780 nM
- LC50 (ACHN): 5.73 µM
- GI50 (ACHN; Homo sapiens, ACHN, 48 h): 1500 nM
- TGI (ACHN; Homo sapiens, ACHN, 48 h): 2.93 µM
- GI50 (HCT-15): 1710 nM
- TGI (HCT-15): 3.43 µM
- CC50 (HCT-15; [10]): 6.86 µM
- GI50 (IGROV-1): 490 nM
- TGI (IGROV-1; Homo sapiens, IGROV-1, 48 h): 1840 nM
- CC50 (IGROV-1; Homo sapiens, IGROV-1, 48 h): 4.95 µM
- Activity (Mus musculus [4]): 30 days
- GI50 (UO-31; Homo sapiens, UO-31, 48 h): 1260 nM
- TGI (UO-31; Homo sapiens, UO-31, 48 h): 2.64 µM
- CC50 (UO-31; Homo sapiens, UO-31, 48 h): 5.5 µM
- IC50 (Plasmodium falciparum [2]): 20 nM
- GI50 (SK-MEL-2): 1710 nM
- TGI (SK-MEL-2): 3.2 µM
- CC50 (SK-MEL-2; [10]): 6.01 µM
- GI50 (UACC-62): 1850 nM
- TGI (UACC-62): 3.99 µM
- CC50 (UACC-62; [10]): 8.59 µM
- GI50 (SNB-75): 1980 nM
- TGI (SNB-75): 4.05 µM
- CC50 (SNB-75; [10]): 8.28 µM
- Activity (Mus musculus [5]): 21.2 days
- Activity (Mus musculus [6]): 21.8 days
- IC50 (Plasmodium falciparum [3]): 14.1 nM

Compound: O[C@@H](c1cc(C(F)(F)F)nc2c(C(F)(F)F)cccc12)[C@H]1CCCCN1 [MEFLOQUINE]
- IC50 (Plasmodium falciparum [7]): 16.4 nM
- IC90 (Plasmodium falciparum [7]): 65.7 nM
- IC50 (Plasmodium falciparum [8]): 10.5 nM
- IC90 (Plasmodium falciparum [8]): 21.7 nM
- IC50 (Plasmodium falciparum [9]): 3.1 nM
- IC90 (Plasmodium falciparum [9]): 8.4 nM

Compound: CC(=O)O[C@H]1C[C@H]2[C@@H]([C@H](OC(C)=O)C[C@@H]3CC4(CC[C@@]32C)OOC2(CCC(C(=O)NCCN(C)C)CC2)OO4)[C@@H]2CC[C@H]([C@H](C)CCC(=O)NCCN(C)C)[C@@]12C (stereo in doubt; 12)
- IC50 (Plasmodium falciparum [7]): 145 nM
- IC90 (Plasmodium falciparum [7]): 160 nM
- IC50 (Plasmodium falciparum [8]): 128 nM
- IC90 (Plasmodium falciparum [8]): 187 nM
- IC50 (Plasmodium falciparum [9]): 132 nM
- IC90 (Plasmodium falciparum [9]): 167 nM

Compound: CC(=O)O[C@H]1C[C@H]2[C@@H]([C@H](OC(C)=O)C[C@@H]3CC4(CC[C@@]32C)OOC2(CCC(C)CC2)OO4)[C@@H]2CC[C@H]([C@H](C)CCC(N)=O)[C@@]12C (stereo in doubt; 15)
- TGI (COLO 205): 3.19 µM
- CC50 (COLO 205): 6.52 µM
- GI50 (HOP-62): 1470 nM
- TGI (HOP-62): 2960 nM
- CC50 (HOP-62): 5.96 µM
- GI50 (EKVX): 1010 nM
- LC50 (EKVX): 5.49 µM
- TGI (EKVX): 2350 nM
- LC50 (ACHN): 1.8 µM and 8.35 µM
- TGI (ACHN): 3.88 µM
- GI50 (IGROV-1): 1540 nM
- TGI (IGROV-1): 3070 nM
- CC50 (IGROV-1): 6.14 µM
- Activity (Mus musculus [4]): 29.2 days
- TGI (UO-31): 3.08 µM
- CC50 (UO-31): 6.11 µM
- GI50 (U-251): 1780 nM
- TGI (U-251): 3.78 µM
- CC50 (U-251; [10]): 8.06 µM
- Activity (Mus musculus [5]): 21.4 days
- Activity (Mus musculus [6]): 27.2 days
